The text below walks through data of US12605397B2, “Deoxy-cytidine or uridine derivatives for use in cancer therapies” (HEMISPHERIAN AS, priority 2019, dated 2026).

As a reminder, the IC50 is the concentration at which inhibition is half-maximal. Low readings indicate greater potency in that assay, high ones weaker potency in that assay.

One data set deals with SK-OV-3 cells. Description: Survival assay (MTT), SK-OV-3. The format is cell-based, human. The conditions noted are these: Homo sapiens. The protocol:
(§1) Cells were passed between 70 and 90% confluence.
(§2) Cells were incubated with the drugs for 72 hours.

For the next data set, the system named is G7 cells. The data set is described as follows: Survival assay (MTT), G7. The format is cell-based, human. The settings on record: Homo sapiens, G7, Glioma, Grade IV, 72 hours. The protocol:
(§3) Primary glioma neural stem (GNS) cells (G7, G14, G144, G166) were cultured on poly-D-lysine (Merck Millipore, Cat. Nr. A-003-E) and laminin (R&D Systems, Cat.Nr. 3446-005-01) coated plates in neural stem cell medium (50% DMEM-F12 (Thermofisher, Cat. Nr. 21041025), 50% neurobasal medium (Thermofisher, Cat. Nr. 10888-022), N2 (Life Technologies, Cat. Nr. A-003-E) and B27 supplements (Life Technologies, Cat.Nr. 12587010), 1 mM sodium pyruvate (Life Technologies, Cat.Nr. 11360-039), 2 mM glutamax (Life Technologies, Cat. Nr. 35050038), 1 mM HEPES (Fisher Scientific, Cat. Nr. BP299-1), 0.1 mM β-mercaptoethanol (Life Technologies, Cat. Nr. 31350010), 1× nonessential amino acids (Life Technologies, Cat. Nr. 11140-035), 0.006% bovine serum albumin (Sigma, Cat. Nr. A8577-10ML), 4 μg/ml heparin (Sigma, Cat. Nr. H3149-25KU), 100 U/ml penicillin, 100 μg/ml streptomycin, 20 ng/ml hEGF (R&D Systems, Cat. Nr. 236-EG-200), 10 ng/ml bFGF (Peprotech, Cat. Nr. 100-18B).
as §2

In the next data set the test system is A549 cells. The data set is described as follows: Survival assay (MTT), A549. The settings on record: Homo sapiens. The format is cell-based, human. As for the experimental part: as §1, §2
The test system of another data set is Arpe19 cells. Description: Survival assay (MTT), Arpe19. The format is cell-based, human. The settings on record: Homo sapiens. As for the experimental part:
as §2
(§4) The present inventors further investigated the extent to which these compounds kill normal human cells; low cytotoxicity against normal human cells is advantageous property for anti-cancer agents. The cytotoxicity of these compounds in various normal human cell lines was therefore investigated (Table 3). Cells were grown and the survival assay was performed as described above (Materials and Methods).

The test system of another data set is G26 cells. Description: Survival assay (MTT), G26. The format is cell-based, human. The conditions noted are these: Homo sapiens, G26, Glioma, Grade IV, 72 hours. As for the experimental part: as §1, §2
For the next data set, the system named is NCI-N87 cells. The data set is described as follows: Survival assay (MTT), NCI-N87. The conditions noted are these: Homo sapiens. The format is cell-based, human. The protocol: as §1, §2
Data set [1] relates to Glioma, Grade IV cell lines. The data set is described as follows: Survival assay, panel of 12 patient derived Glioma, Grade IV cell lines. The format is cell-based, human. The settings on record: of 12 cell lines of Table 2. The protocol: as §3, §1, §2
Due to lack of activity in previous assays, 5-carboxyl-2′-deoxycytidine was not included in this more rigorous analysis.

Another data set concerns G30 cells. Description: Survival assay (MTT), G30. The format is cell-based, human. The settings on record: Homo sapiens, G30, Glioma, Grade IV, 72 hours. As for the experimental part:
as §1, §2

A further data set relates to U87-MG cells. Description: Survival assay (MTT), U87-MG. The settings on record: for IC50: U87-MG; for cytotoxicity to U87-MG cells (cell survival): up to 100 μM; for rescue of cytotoxicity by the addition of thymidine: U87-MG cells; for cytotoxic effect in combination with Temozolomide: temozolomide resistant U87-MG cells.
A further data set deals with HL-60 cells. Description: Survival assay (MTT), HL-60. The format is cell-based, human. The conditions noted are these: Homo sapiens. As for the experimental part: as §1, §2
A further data set has as its system 22Rv1 cells. Description: Survival assay (MTT), 22Rv1. The settings on record: Homo sapiens. The format is cell-based, human. As for the experimental part:
as §1, §2

The subject of a further data set is A-498 cells. The data set is described as follows: Survival assay (MTT), A-498. The format is cell-based, human. The conditions noted are these: Homo sapiens. The protocol:
as §1, §2

A further data set has as its system G166 cells. The data set is described as follows: Survival assay (MTT), G166. The settings on record: Homo sapiens, G166, Glioma, Grade IV, 72 hours. The format is cell-based, human. The protocol:
as §3, §2

In the next data set the test system is Buffy M cells. Description: Survival assay (MTT), Buffy M. The format is cell-based, human. The conditions noted are these: Homo sapiens, Normal, Bone Marrow, 72 hours. The protocol:
as §1, §2, §4

A short description of data set [2]: Multiple MTD, repeated dose. The format is in vivo. The settings on record: mice, IP 300, 1000, 2000 mg/kg every three days, 5 doses. As for the experimental part:
The test compounds were dosed every three days for a total of 5 doses (q3dx5).
In addition, body weights were recorded before each treatment and at 24, 48 and 72 hours after the final administration.
Mice were injected with the indicated compound at the indicated dose intraperitoneally once every three days for a total of 5 doses.

[3] abbreviates: SK-OV-3, Ovarian Adenocarcinoma, 72 hours, MTT.
Setting [4] is: A549, 72 h, A549, Lung Carcinoma, 72 hours, MTT.
The mark [5] stands for this setting: ARPE-19, 72 h, Arpe19, Normal, Ectoderm, 72 hours, MTT.
Setting [6] is: NCI-N87, Gastric Carcinoma, 72 hours, MTT.
Setting [7] is: Homo sapiens, U-87 MG, 72 h, Glioma, Grade IV, MTT.
[8] abbreviates: HL-60, Acute Promyelocytic Leukemia, 72 hours, MTT.
Where [9] appears, read: 22Rv1, 72 h, 22Rv1, Prostate Carcinoma, 72 hours, MTT.
Where [10] appears, read: A498, 72 h, A-498, Kidney Carcinoma, 72 hours, MTT.
Setting [11] is: SK-OV-3, Tables 6 and 7, unit inferred.
[12] abbreviates: A549, A549, Tables 6 and 7, unit inferred.
The mark [13] stands for this setting: ARPE-19, ARPE19, Tables 6 and 7, unit inferred.
The mark [14] stands for this setting: NCI-N87, Tables 6 and 7, unit inferred.
The mark [15] stands for this setting: Homo sapiens, U-87 MG, Tables 6 and 7, unit inferred.
[16] abbreviates: HL-60, Tables 6 and 7, unit inferred.
Setting [17] is: 22Rv1, 22Rv1, Tables 6 and 7, unit inferred.
Where [18] appears, read: A498, A-498, Tables 6 and 7, unit inferred.
Where [19] appears, read: 72 hours, MTT, listed as 5-hydroxymethyl-2′-deoxycytidine.

The structures appear in SMILES notation.

Protocol for U87-MG cells: Cell lines not mentioned above were grown in DMEM (Sigma, Cat.Nr. D6429) supplemented with 10% Fetal Bovine Serum and 100 U/ml penicillin 100 U/ml streptomycin. All cells were maintained in a 5% CO2, humidified, water-jacketed incubator at 37° C. Cells were passed between 70 and 90% confluence.
In a 96-well plate, 4000 cells in 100 μl of corresponding medium were seeded. The following day, drugs, diluted in DMSO, were added in 8 concentrations in triplicate. Drugs were added as a 4-fold dilution series starting from 100 μM. Cells were incubated with the drugs for 72 hours. Cell proliferation was assessed by MTT assay according to the manufacturer's protocol (ATCC, Cat. Nr. 30-1010K). Cell survival was normalized to the survival of cells treated with DMSO only. Experiment was performed three times, data represent mean of nine wells±SEM.
In a 96-well plate, 4000 cells in 100 μl of corresponding medium were seeded. The following day, drugs, diluted in DMSO, were added in triplicate at a concentration of 100, 25, 6.25, 1.56, 0.39, 0.1, 0.02, or 0.006 ┘M. Cells were incubated with the drugs for 72 hours. Cell proliferation was assessed by MTT assay according to the manufacturer's protocol (ATCC, Cat. Nr. 30-1010K). Cell survival was normalized to the survival of cells treated with DMSO only. Experiment was performed three times, data represent mean of nine wells±SEM.

Turning to `Cn1nnc2c(C(N)=O)ncn2c1=O` [Temozolomide, 4-methyl-5-oxo-2,3,4,6,8-pentazabicyclo[4.3.0]nona-2,7,9-triene-9-carboxamide, reference compound], the IC50 in the data set on SK-OV-3 cells (setting [3]) was > 25 µM; in the data set on G7 cells, 6.18 µM; in the data set on A549 cells (setting [4]), 1.02 µM; in the data set on Arpe19 cells (setting [5]), > 25 µM; in the data set with G26 cells, 7.34 µM; in the data set on NCI-N87 cells (setting [6]) it was > 25 µM. The IC50 in the data set with G30 cells is 21.6 µM; in the data set with U87-MG cells (setting [7]) it was > 25 µM; in the data set on HL-60 cells (setting [8]) it was > 25 µM; in the data set on 22Rv1 cells (setting [9]) it was > 25 µM; in the data set with A-498 cells (setting [10]), > 25 µM; in the data set with G166 cells it was > 100 µM. The “number of Glioma, Grade IV cell lines killed” value (“number of Glioma” below) in data set [1] is reported as 5 of 12.
For the compound `Nc1nc(=O)n([C@H]2C[C@H](O)[C@@H](CO)O2)cc1C=O` [2d5fC, 5-formyl-2′-deoxycytidine], the IC50 is 9.69 µM with SK-OV-3 cells (setting [3]); 9.69 µM in the data set on SK-OV-3 cells (setting [11]); 19.2 µM with G7 cells; > 25 µM in the data set with A549 cells (setting [4]); ≥ 25 µM in the data set on A549 cells (setting [12]); > 25 µM in the data set on Arpe19 cells (setting [5]). In addition, the IC50 in the data set on Arpe19 cells (setting [13]) was ≥ 25 µM; in the data set with G26 cells, 28.1 µM; in the data set with NCI-N87 cells (setting [6]), 0.806 µM; in the data set on NCI-N87 cells (setting [14]), 0.806 µM; in the data set on G30 cells, 18 µM; in the data set with Buffy M cells it was > 25 µM. In addition, the IC50 is 0.334 µM with U87-MG cells (setting [7]); 0.334 µM with U87-MG cells (setting [15]); 6.26 µM with HL-60 cells (setting [8]); 6.26 µM in the data set with HL-60 cells (setting [16]); ≥ 25 µM in the data set with 22Rv1 cells (setting [17]); > 25 µM in the data set with 22Rv1 cells (setting [9]). The IC50 in the data set on A-498 cells (setting [10]) is > 25 µM; in the data set on A-498 cells (setting [18]) it was ≥ 25 µM; with G166 cells, > 100 µM. In data set [1], the “number of Glioma” value is given as 5 of 12. The “cytotoxicity to U87-MG cells (cell survival)” value in the data set on U87-MG cells (72 hours, MTT) is on record as “markedly more cytotoxic”. Moreover, the “rescue of cytotoxicity by the addition of thymidine” value in the data set with U87-MG cells (72 hours, MTT) is “not rescued”. For the same compound, the “cytotoxic effect in combination with Temozolomide” value in the data set with U87-MG cells (72 hours, MTT, listed as 5-formyl-2′-deoxycytidine) is reported as “synergistically”; in the data set on U87-MG cells (72 hours, MTT, listed as d5fC), “more effective”. Besides, in [2], the “body weight compared with untreated animals” value is reported as “not statistically different”.
Regarding `Nc1nc(=O)n([C@H]2C[C@H](O)[C@@H](CO)O2)cc1CO` [2d5hmC, 5-hydroxymethyl-2′-deoxycytidine], the IC50 in the data set on SK-OV-3 cells (setting [3]) was > 25 µM; with SK-OV-3 cells (setting [11]) it was ≥ 25 µM; in the data set with G7 cells it was 11.9 µM; in the data set with A549 cells (setting [4]) it was > 25 µM; with A549 cells (setting [12]) it was ≥ 25 µM; in the data set on Arpe19 cells (setting [5]) it was > 25 µM. Moreover, the IC50 in the data set with Arpe19 cells (setting [13]) is ≥ 25 µM; with G26 cells, > 100 µM; in the data set with NCI-N87 cells (setting [6]), > 25 µM; with NCI-N87 cells (setting [14]), ≥ 25 µM; in the data set on G30 cells, 28.1 µM; in the data set on Buffy M cells, > 25 µM. The IC50 with U87-MG cells (setting [15]) was 3.03 µM; with U87-MG cells (Glioma, Grade IV, 72 hours, MTT), > 0.334 µM; in the data set with HL-60 cells (setting [8]), > 25 µM; in the data set on HL-60 cells (setting [16]), ≥ 25 µM; in the data set with 22Rv1 cells (setting [17]) it was ≥ 25 µM; with 22Rv1 cells (setting [9]) it was > 25 µM. In addition, the IC50 with A-498 cells (setting [10]) was > 25 µM; with A-498 cells (setting [18]), ≥ 25 µM; in the data set on G166 cells, > 100 µM. The “number of Glioma” value in data set [1] was 6 of 12. In addition, the “cytotoxicity to U87-MG cells (cell survival)” value in the data set with U87-MG cells (setting [19]) was “cytotoxic”; in the data set on U87-MG cells (72 hours, MTT, listed as d5hmC), “markedly more cytotoxic”. Besides, the “rescue of cytotoxicity by the addition of thymidine” value with U87-MG cells (72 hours, MTT) was “not rescued”. In addition, the “cytotoxic effect in combination with Temozolomide” value is “synergistically” with U87-MG cells (setting [19]) and “more effective” in the data set with U87-MG cells (72 hours, MTT, listed as d5hmC). Moreover, the “body weight compared with untreated animals” value in [2] is reported as “not statistically different”.
